Measured values reported in publication PMC12663214, “Synthesis, structural elucidation, and molecular docking of diclofenac-derived hydrazone metal complexes with anti-inflammatory and anticancer potential” (Scientific Reports, 2025).
“And” between values parts separate entries of the source, which are not always exact repeats. Identical values can stand only once. Like-named read-outs stand apart in the source and are kept apart here.

Tests used:
[1] = target: T1, recombinant COX-2 (human) (Homo sapiens, UniProt P35354); assay: COX-2 inhibition, ELISA kit (Cayman Chemical); format: biochemical; conditions: for COX-2 selectivity index (S.I.): ratio of COX-1 IC50 to COX-2 IC50; for IC50: human recombinant COX-2, ELISA
T1 construct: purchased Cayman Chemical 560131
T1 sequence (P35354 18-604): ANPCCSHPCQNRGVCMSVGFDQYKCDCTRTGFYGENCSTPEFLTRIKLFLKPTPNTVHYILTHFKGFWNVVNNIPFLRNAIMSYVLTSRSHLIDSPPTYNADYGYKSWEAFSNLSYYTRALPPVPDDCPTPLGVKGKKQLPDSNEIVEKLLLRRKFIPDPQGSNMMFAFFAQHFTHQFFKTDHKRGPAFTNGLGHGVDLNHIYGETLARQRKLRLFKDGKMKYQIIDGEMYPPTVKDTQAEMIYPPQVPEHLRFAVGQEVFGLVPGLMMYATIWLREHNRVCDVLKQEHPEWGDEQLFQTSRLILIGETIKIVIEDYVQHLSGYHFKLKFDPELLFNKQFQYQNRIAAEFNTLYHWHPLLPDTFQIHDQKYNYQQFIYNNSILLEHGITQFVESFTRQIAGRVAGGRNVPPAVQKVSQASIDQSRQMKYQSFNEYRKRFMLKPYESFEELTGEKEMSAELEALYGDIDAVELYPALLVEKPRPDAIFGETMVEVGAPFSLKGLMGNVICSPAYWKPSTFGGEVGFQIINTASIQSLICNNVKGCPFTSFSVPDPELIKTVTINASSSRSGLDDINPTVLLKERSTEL
Source text: (§1) These enzymes are crucial targets in the development of anti-inflammatory agents due to their roles in prostaglandin synthesis, with COX-1 associated with normal physiological functions and COX-2 predominantly involved in inflammation.

[2] = tested on: HepG-2 (liver cancer) cell line; assay: MTT cytotoxicity assay, HepG-2; format: cell-based, homo sapiens, human; conditions: for IC50: MTT, HepG-2
Protocol: (§2) MCF-7 and HepG-2 cell lines (provided by the Cell Culture Department, VACSERA, Egypt) were seeded in each 96-well tissue culture plate well at a concentration of 1 × 10^5 cells/ml, adding 100 µl/well. Incubation at 37 °C followed for 24 h until a full monolayer was established. The growth medium was later aspirated, and the cell monolayer was rinsed twice using wash media. It was then subjected to a two-fold dilution in an RPMI medium containing 2% serum, which is regarded as a maintenance medium. Later, 0.1 ml of each dilution was added to individual wells. Three wells were reserved for use as controls and received only the maintenance medium. The plate was then incubated at 37 °C and further monitored accordingly. The marks of toxicity to be checked on the cells include disruption of the cell monolayer, cell rounding and shrinking, or the appearance of granules. MTT solution is prepared from BIO BASIC CANADA INC with a 5 mg/ml strength in PBS. To ensure the MTT and media are well mixed, add 20 µl of MTT solution to each well and shake the plate. The MTT will be metabolized by incubating the plate at 37 °C with 5% CO2 for one to five hr. If there is any residual substance, get rid of the rest by drying the plate on paper towels. Add DMSO (200 µl) to dissolve the formazan (MTT metabolic product) and then put the plate on the shaking table set at 150 rpm for 5 min to assure that the formazan is fully dissolved into the solvent. Measure the optical density at 560 nm and subtract the background signal at 620 nm. The optical density value reflects directly the number of cells[28]–[30]. MCF-7 (breast cancer) and HepG-2 (liver cancer) cell lines.
(§3) The antitumor effects of the newly synthesized HDN ligand and its metal complexes with Cu(II) and Gd(III) were tested against MCF-7 (breast cancer) and HepG-2 (liver cancer) cell lines using the MTT assay[28]–[30].. This method measures cell viability based on mitochondrial activity, clearly indicating each compound’s cytotoxic potential. The key findings from these tests are outlined in Tables 4, S8, and S9 and illustrated in Figures S21-S31.

[3] = tested on: MCF-7 (breast cancer) cell line; assay: MTT cytotoxicity assay, MCF-7; format: cell-based, homo sapiens, human; conditions: for IC50: MTT, MCF-7
Protocol: as §2, §3

[4] = Solubility in organic solvents; format: physicochemical
COX-1 (ovine) = target: T2, COX-1 (ovine) (Ovis aries, UniProt P05979); assay: COX-1 inhibition, ELISA kit (Cayman Chemical); format: biochemical; conditions: ovine COX-1, ELISA
T2 construct: purchased Cayman Chemical 560131
T2 sequence (P05979 25-600): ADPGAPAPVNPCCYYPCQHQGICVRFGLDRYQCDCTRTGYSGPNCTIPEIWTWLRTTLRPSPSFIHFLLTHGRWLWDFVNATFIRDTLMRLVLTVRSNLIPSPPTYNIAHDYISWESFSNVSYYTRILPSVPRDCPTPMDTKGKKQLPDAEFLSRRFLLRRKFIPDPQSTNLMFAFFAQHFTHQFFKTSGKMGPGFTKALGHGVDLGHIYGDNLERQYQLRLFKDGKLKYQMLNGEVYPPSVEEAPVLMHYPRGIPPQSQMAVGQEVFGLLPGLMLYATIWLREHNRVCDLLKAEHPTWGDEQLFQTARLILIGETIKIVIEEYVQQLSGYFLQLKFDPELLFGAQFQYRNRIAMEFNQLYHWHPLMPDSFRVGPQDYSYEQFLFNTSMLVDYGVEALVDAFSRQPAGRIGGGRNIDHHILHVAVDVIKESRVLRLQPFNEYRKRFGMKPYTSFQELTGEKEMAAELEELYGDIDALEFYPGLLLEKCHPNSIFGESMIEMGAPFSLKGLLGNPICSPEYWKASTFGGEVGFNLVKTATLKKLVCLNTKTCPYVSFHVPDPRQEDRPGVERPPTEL
Source text: as §1

[5] = tested on: HepG-2 (liver cancer) cell line; conditions: cited from earlier work
[6] = tested on: MCF-7 (breast cancer) cell line; conditions: cited from earlier work

O.O=C(Cc1ccccc1Nc1c(Cl)cccc1Cl)NN=Cc1c([O-])ccc2ccccc12.[Ag+] [Ag(I)-HDN, [Ag(DN)(H2O)]]
COX-2 selectivity index (S.I.) [1]: 14.15

[Cu(DN)2]2.5H2O [Cu(II)-HDN]
Inhibition % ([2]; HepG-2, 0.31 µM/ml): 2.96%
Inhibition % ([2]; HepG-2, 0.62 µM/ml): 35.16%
Inhibition % ([2]; HepG-2, 1.25 µM/ml): 61.65%
Inhibition % ([2]; HepG-2, 2.50 µM/ml): 85.53%
Inhibition % ([2]; HepG-2, 5.00 µM/ml): 97.32%
Inhibition % ([2]; HepG-2, 10.00 µM/ml): 97.38%
Inhibition % ([2]; HepG-2, 10.00 µM/ml, listed as Cu(II) complex): exceeding 95%
IC50 [2]: 1 µM
Inhibition % ([3]; MCF-7, 0.31 µM/ml): 16.98%
Inhibition % ([3]; MCF-7, 0.62 µM/ml): 63.27%
Inhibition % ([3]; MCF-7, 1.25 µM/ml): 84.90%
Inhibition % ([3]; MCF-7, 2.50 µM/ml): 97.18%
Inhibition % ([3]; MCF-7, 5.00 µM/ml): 97.39%
Inhibition % ([3]; MCF-7, 10.00 µM/ml): 97.49%
Inhibition % ([3]; MCF-7, 10.00 µM/ml, listed as Cu(II) complex): exceeding 95%
IC50 [3]: 0.65 µM
times more potent than 5-fluorouracil ([3]; breast cancer cells (MCF-7), from IC50 values): approximately six

O=C(Cc1ccccc1Nc1c(Cl)cccc1Cl)N/N=C/c1c(O)ccc2ccccc12 [Ligand [HDN], (E)−2-(2-((2,6-dichlorophenyl)amino)phenyl)-N’-((2-hydroxynaphthalen-1-yl)methylene)acetohydrazide]
inhibition at 31.25 µg/mL ([2]; Homo sapiens, HepG2, HepG-2, 31.25 µg/ml): 12.9%
inhibition at 62.5 µg/mL ([2]; Homo sapiens, HepG2, HepG-2, 62.5 µg/ml): 61.4%
inhibition at 250 µg/mL ([2]; Homo sapiens, HepG2, HepG-2, 250 µg/ml): 96.9%
inhibition at 500 µg/mL ([2]; Homo sapiens, HepG2, HepG-2, 500 µg/ml): 97.2%
inhibition at 1000 µg/mL ([2]; Homo sapiens, HepG2, HepG-2, 1000 µg/ml): 97%
IC50 ([2]; Homo sapiens, HepG2): 152 µM and 70.5 µg/mL
solubility in acetone ([4]; organic solvent: acetone): slight solubility
solubility in DMSO and DMF ([4]; organic solvents: DMSO, DMF): dissolved well
solubility in EtOH and MeOH ([4]; organic solvents: EtOH, MeOH): didn’t dissolve
IC50 (COX-1 (ovine)): 10.5 µM
IC50 [1]: 0.06 µM
COX-2 selectivity index (S.I.) [1]: 174.5
inhibition at 31.25 µg/mL ([3]; Homo sapiens, MCF7, MCF-7, 31.25 µg/ml): 7.98%
inhibition at 62.5 µg/mL ([3]; Homo sapiens, MCF7, MCF-7, 62.5 µg/ml): 52.5%
inhibition at 250 µg/mL ([3]; Homo sapiens, MCF7, MCF-7, 250 µg/ml): 89.2%
inhibition at 500 µg/mL ([3]; Homo sapiens, MCF7, MCF-7, 500 µg/ml): 97.3%
inhibition at 1000 µg/mL ([3]; Homo sapiens, MCF7, MCF-7, 1000 µg/ml): 97.5%
IC50 ([3]; Homo sapiens, MCF7): 178 µM and 82.6 µg/mL

O=c1[nH]cc(F)c(=O)[nH]1 [5-Fluorouracil]
IC50 ([5]; ref [55],[56]): 32.5 µM
IC50 ([6]; ref [55],[56]): 3.95 µM

CC(C)Cc1ccc(C(C)C(=O)O)cc1 (centres unmarked) [Ibuprofen]
IC50 ([6]; ref [54]): 5060 µM

N.N.[Cl][Pt][Cl] [Cisplatin]
IC50 ([5]; ref [57],[58]): 8.45 µM
IC50 ([6]; ref [57],[58]): 15.2 µM

O.O.O.O.O=C(Cc1ccccc1Nc1c(Cl)cccc1Cl)NN=Cc1c(O)ccc2ccccc12.O=C(Cc1ccccc1Nc1c(Cl)cccc1Cl)NN=Cc1c(O)ccc2ccccc12.O=[N+]([O-])[O-].O=[N+]([O-])[O-].O=[N+]([O-])[O-].[Gd+3] [Gd(III)-HDN, [Gd(HDN)2(NO3)2]NO3.4H2O]
Inhibition % ([2]; HepG-2, 0.31 µM/ml): 0.45%
Inhibition % ([2]; HepG-2, 0.62 µM/ml): 0.40%
Inhibition % ([2]; HepG-2, 1.25 µM/ml): 7.98%
Inhibition % ([2]; HepG-2, 2.50 µM/ml): 53.05%
Inhibition % ([2]; HepG-2, 5.00 µM/ml): 81.14%
Inhibition % ([2]; HepG-2, 10.00 µM/ml): 95.27%
Inhibition % ([2]; HepG-2, 10.00 µM/ml, listed as Gd(III) complex): exceeding 95%
IC50 [2]: 2.47 µM
IC50 (COX-1 (ovine)): 6 µM
IC50 [1]: 0.95 µM
COX-2 selectivity index (S.I.) [1]: 6.31
Inhibition % ([3]; MCF-7, 0.31 µM/ml): 18.33%
Inhibition % ([3]; MCF-7, 0.62 µM/ml): 50.83%
Inhibition % ([3]; MCF-7, 1.25 µM/ml): 70.06%
Inhibition % ([3]; MCF-7, 2.50 µM/ml): 75.34%
Inhibition % ([3]; MCF-7, 5.00 µM/ml): 96.71%
Inhibition % ([3]; MCF-7, 10.00 µM/ml): 96.86%
Inhibition % ([3]; MCF-7, 10.00 µM/ml, listed as Gd(III) complex): exceeding 95%
IC50 [3]: 0.8 µM

O=C(O)Cc1ccccc1Nc1c(Cl)cccc1Cl [Diclofenac sodium]
IC50 ([5]; ref [54],[64]): 147 µM
IC50 ([6]; ref [54],[64]): 1790 µM

O=C(Cc1ccccc1Nc1c(Cl)cccc1Cl)NN=Cc1c([O-])ccc2ccccc12.O=C(Cc1ccccc1Nc1c(Cl)cccc1Cl)NN=Cc1c([O-])ccc2ccccc12.[Co+2] [Co(II)-HDN, [Co(DN)2]]
IC50 (COX-1 (ovine)): 8.5 µM
IC50 [1]: 0.62 µM
COX-2 selectivity index (S.I.) [1]: 13.71
